Test results as given in US7098332B2, “5,8-Dihydro-6H-pyrido[2,3-d]pyrimidin-7-ones” (Hoffmann-La Roche Inc., priority 2002, dated 2006).

Assays:
[1] = target: PDGFR; experiment: PDGFR kinase HTRF assay; format: biochemical; conditions: 2.3 μM ATP
Description: (§1) To determine inhibition of KDR, FGFR, EGFR, and PDGFR activity, kinase assays were conducted using an HTRF (Homogeneous Time Resolved Fluorescence) assay. This assay is described in A. J. Kolb et. al., Drug Discovery Today, 1998, 3(7), p 333.
(§2) Kinase activity assays were performed in 96-well polypropylene plates (Falcon) with a total volume of 90 μL in each well. Each well contained 1 μM KDR substrate (Biotin-EEEEYFELVAKKKK), 1 nM activated KDR, and a test compound with one of 8 assay concentrations ranging from 100 μM to […] (1:5 serial dilution). The kinase activity assay was done in the presence of 100 mM HEPES, pH 7.4, 1 mM DTT, 0.1 mM Na2VO4, 25 mM MgCl2, 50 mM NaCl (from KDR stock solution), 1% DMSO (from compound), 0.3 mM ATP (at Km concentration) and 0.02% BSA. The reaction was incubated at 37° C. for 30 minutes. To stop the KDR reaction, 72 μL of reaction mixture was transferred into a STOP plate containing 18 μL of revelation buffer (20 mM EDTA, 50 mM HEPES, pH 7.4, 0.02% BSA, 10 nM Eu-labelled anti-pY antibody (final conc. 2 nM), and 100 nM streptavidin (final conc. 20 nM)). After mixing, 35 μL of solution was transferred into duplicate wells of a 384-well black plate (Costar), and read at 615/665 nm on a Wallac Victor 5 reader.
(§3) The PDGFR kinase activity assay was performed with 1 μM substrate (Biotin-EEEEYFELV), 1.0 nM PDGFR, test compounds, 100 mM HEPES, pH 7.4, 1 mM DTT, 5 mM MgCl2, 2 mM MnCl2, 1% DMSO, 2.3 μM ATP (Km for PDGFR), 0.1 mM Na2VO4, and 0.02% BSA. The rest of the assay was performed in the same manner as the KDR assay.
(§4) Compound IC50 values were determined from duplicate sets of data, and calculated by using Excel and fitting data to equation Y=[(a−b)/{1+(X/c)^d]+b, where a and b are enzyme activity in the presence of no test inhibitor compound and an infinite amount of inhibitor test compound, respectively, c is the IC50 and d is the hill constant of the compound response. The IC50 value is the concentration of test compound that reduces by 50% the enzyme activity under the test conditions described.

[2] = target: T1, KDR (Homo sapiens, UniProt P35968); experiment: KDR kinase HTRF assay; format: biochemical; conditions: 0.3 mM ATP
T1 construct: EEE tag
T1 sequence (P35968 20-1356): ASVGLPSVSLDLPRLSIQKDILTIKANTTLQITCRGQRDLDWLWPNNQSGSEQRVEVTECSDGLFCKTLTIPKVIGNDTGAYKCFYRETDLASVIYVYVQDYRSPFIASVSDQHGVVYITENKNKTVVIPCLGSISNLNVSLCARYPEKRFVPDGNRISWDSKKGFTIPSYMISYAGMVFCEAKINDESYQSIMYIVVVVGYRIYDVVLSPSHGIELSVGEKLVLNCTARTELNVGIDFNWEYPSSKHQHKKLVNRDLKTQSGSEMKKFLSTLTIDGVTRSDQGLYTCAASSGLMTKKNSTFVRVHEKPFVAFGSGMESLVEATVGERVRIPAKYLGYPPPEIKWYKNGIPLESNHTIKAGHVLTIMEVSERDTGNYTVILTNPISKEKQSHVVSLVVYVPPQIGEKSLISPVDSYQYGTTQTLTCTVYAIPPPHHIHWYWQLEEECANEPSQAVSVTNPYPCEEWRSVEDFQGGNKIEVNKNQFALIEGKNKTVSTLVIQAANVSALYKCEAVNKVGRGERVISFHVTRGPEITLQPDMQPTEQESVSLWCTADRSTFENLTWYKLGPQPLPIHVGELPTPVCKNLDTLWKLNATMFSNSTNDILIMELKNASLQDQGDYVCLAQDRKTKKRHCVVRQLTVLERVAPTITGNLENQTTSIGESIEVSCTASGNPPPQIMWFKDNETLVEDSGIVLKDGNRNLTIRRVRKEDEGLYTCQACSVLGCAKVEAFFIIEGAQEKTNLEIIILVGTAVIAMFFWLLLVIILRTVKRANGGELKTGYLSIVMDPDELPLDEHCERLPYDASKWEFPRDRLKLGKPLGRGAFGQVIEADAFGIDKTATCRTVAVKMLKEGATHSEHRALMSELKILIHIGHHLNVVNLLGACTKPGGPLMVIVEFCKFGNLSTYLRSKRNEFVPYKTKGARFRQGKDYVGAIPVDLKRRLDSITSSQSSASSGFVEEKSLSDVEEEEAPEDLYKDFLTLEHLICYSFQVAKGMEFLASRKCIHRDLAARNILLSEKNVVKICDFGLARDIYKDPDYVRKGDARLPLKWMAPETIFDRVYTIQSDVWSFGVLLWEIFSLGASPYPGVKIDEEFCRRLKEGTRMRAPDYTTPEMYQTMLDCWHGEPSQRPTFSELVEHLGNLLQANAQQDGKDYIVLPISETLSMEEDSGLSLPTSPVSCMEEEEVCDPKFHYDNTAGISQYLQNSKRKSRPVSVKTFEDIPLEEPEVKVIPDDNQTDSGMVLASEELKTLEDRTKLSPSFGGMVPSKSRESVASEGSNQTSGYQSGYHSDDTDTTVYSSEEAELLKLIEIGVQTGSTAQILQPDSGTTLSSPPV
Description: as §1
Prior to kinase reaction, recombinant EEE-tagged KDR was activated in the presence of activation buffer (50 mM HEPES, pH 7.4, 1 mM DTT, 10% glycerol, 150 mM NaCl, 0.1 mM EDTA, 26 mM MgCl2, and 4 mM ATP). The enzyme was incubated at 4° C. for 1 hour.
as §2, §4

[3] = target: T2, FGFR; experiment: FGFR kinase HTRF assay; format: biochemical; conditions: 10 μM ATP
T2 construct: fused on or other part: GST tag
Description: as §1, §2
FGFR, EGFR, and PDGFR activity assays were carried out as described above for the KDR activity assay with the following differences. GST-tagged FGFR enzyme was activated at room temperature for 1 hour in the following activation buffer: 100 mM HEPES, pH 7.4, 50 mM NaCl, 20 mM MgCl2, and 4 mM ATP. The kinase activity assay was performed with 1 μM substrate (Biotin-EEEEYFELV), 1.5 nM activated FGFR, and test compound in the presence of 100 mM HEPES, 1 mM DTT, 0.4 mM MgCl2, 0.4 mM MnCl2, 50 mM NaCl, 1% DMSO, 10 μM ATP (Km=8.5 μM for FGFR), 0.1 mM Na2VO4, and 0.02% BSA, in a total volume of 90 μL. The rest of the assay was performed in the same manner as KDR assay.
as §4

[4] = target: EGFR (Homo sapiens, UniProt P00533); experiment: EGFR kinase HTRF assay; format: biochemical; conditions: 0.5 μM ATP
Sequence of EGFR (P00533 25-1210, species assumed): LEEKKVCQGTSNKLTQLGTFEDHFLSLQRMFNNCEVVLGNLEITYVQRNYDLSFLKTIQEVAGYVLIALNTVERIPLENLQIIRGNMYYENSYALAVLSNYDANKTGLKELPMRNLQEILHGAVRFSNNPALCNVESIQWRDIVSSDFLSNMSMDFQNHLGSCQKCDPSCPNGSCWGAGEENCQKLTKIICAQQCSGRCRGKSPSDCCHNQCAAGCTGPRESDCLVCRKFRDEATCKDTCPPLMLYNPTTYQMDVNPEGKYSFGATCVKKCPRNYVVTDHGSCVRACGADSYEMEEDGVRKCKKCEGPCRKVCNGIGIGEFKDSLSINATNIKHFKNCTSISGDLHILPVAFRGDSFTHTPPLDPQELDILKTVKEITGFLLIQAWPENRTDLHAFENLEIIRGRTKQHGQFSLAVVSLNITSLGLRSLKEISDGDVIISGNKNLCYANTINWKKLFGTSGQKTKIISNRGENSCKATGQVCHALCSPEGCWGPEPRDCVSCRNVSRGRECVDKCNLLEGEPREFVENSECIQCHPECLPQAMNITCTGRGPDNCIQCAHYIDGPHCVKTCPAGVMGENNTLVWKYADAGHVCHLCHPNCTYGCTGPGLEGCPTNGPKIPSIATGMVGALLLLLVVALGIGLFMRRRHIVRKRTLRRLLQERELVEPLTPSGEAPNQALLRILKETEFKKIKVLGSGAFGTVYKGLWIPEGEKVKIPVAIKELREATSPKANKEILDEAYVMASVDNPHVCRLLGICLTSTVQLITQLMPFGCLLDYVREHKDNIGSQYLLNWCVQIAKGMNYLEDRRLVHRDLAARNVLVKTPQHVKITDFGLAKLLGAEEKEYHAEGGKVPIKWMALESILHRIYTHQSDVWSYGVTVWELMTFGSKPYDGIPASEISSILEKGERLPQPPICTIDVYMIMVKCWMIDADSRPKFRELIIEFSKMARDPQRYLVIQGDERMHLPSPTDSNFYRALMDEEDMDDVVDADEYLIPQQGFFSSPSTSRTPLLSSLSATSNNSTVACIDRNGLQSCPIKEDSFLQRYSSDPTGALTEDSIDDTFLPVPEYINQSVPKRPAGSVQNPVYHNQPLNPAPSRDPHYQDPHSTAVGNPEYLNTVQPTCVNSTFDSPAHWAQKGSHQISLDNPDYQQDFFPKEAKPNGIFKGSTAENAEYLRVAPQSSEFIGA
Description: as §1, §2
as §3, with “EGFR” for “PDGFR”, “1.5” for “1.0”, “EGFR,” for “PDGFR,”, “0.5” for “2.3”, “EGFR),” for “PDGFR),”
as §4

[5] = test system: Human umbilical vein endothelial cells; experiment: VEGF-stimulated HUVEC proliferation assay (BrdU); format: cell-based; conditions: VEGF 20 ng per mL, BrdU labeling, read-out: HUVEC/VEFG IC50
Description: (§5) The antiproliferative activity of test-compounds of this invention in cell-based assays was evaluated by BrdU assay using the BrdU kit (Roche Biochemicals 1-647-229). Human umbilical vein endothelial cells (Clonetics CC-2519) were cultured in EGM-2 (Clonetics CC-3162) medium and seeded at 10000 cells per well in a volume of 200 μL of EGM-2 (Clonetics CC-3162) media in a 96-well flat bottom plates (Costar 3595) overnight. After 24 hours of growth at 37° C. with 5% CO2, the incubation media was removed slowly by aspiration and the content of each well was washed with 300 μL pre-warmed EBM-2 (Clonetics CC-3156) containing 50 μg per mL of gentamycin and 50 ng per mL of amphotercin-B (Clonetics CC-4083). […]
(§6) After 24 hour exposure to the test compounds, the cells were labeled with BrdU (Roche Biochemicals 1-647-229), by adding 20 μL per well of BrdU labeling reagent that has been diluted (1:100) in serum starvation medium. […] The plates were read at 450 nm with reference wavelength of 650 nm. The percent inhibition for each test compound was calculated by subtracting the absorbency of the blank (no cells) wells from all wells, then subtracting the division of the average absorbency of each test duplicate by the average of the controls from 1. […] The IC50 is determined from the linear regression of a plot of the logarithm of the concentration versus percent inhibition.

[6] = test system: Human umbilical vein endothelial cells; experiment: FGF-stimulated HUVEC proliferation assay (BrdU); format: cell-based; conditions: FGF 5 ng per mL, BrdU labeling, read-out: HUVEC/bFGFR IC50
Description: as §5, §6

Compound	IC50 [1] [µM]	IC50 [2] [µM]	IC50 [3] [µM]	IC50 [4] [µM]	IC50 [5] [µM]	IC50 [6] [µM]
O=C1C(c2cccnc2)Cc2cnc(Nc3ccccc3)nc2N1c1ccccc1 (stereo not drawn) [Example 10c, 8-Phenyl-2-phenylamino-6-pyridin-3-yl-5,8-dihydro-6H-pyrido[2,3-d]pyrimidin-7-one]	< 10	< 10	< 10	< 10	–	–
COc1ccc(C2Cc3cnc(Nc4ccccc4)nc3N(c3ccccc3)C2=O)cc1OC (stereo not drawn) [Example 11c, 6-(3,4-Dimethoxy-phenyl)-8-phenyl-2-phenylamino-5,8-dihydro-6H-pyrido[2,3-d]pyrimidin-7-one]	< 10	< 10	< 10	> 10	–	–
O=C1C(c2cc(C(F)(F)F)cc(C(F)(F)F)c2)Cc2cnc(Nc3ccccc3)nc2N1c1ccccc1 (stereo not drawn) [Example 8d, 6-(3,5-Bis-trifluromethyl-phenyl)-8-phenyl-2-phenylamino-5,8-dihydro-6H-pyrido[2,3-d]pyrimidin-7-one]	< 10	> 10	> 10	> 10	–	–
COc1ccc(C2Cc3cnc(Nc4ccccc4)nc3N(c3ccccc3)C2=O)cc1 (stereo not drawn) [Example 1f, 6-(4-Methoxy-phenyl)-8-phenyl-2-phenylamino-5,8-dihydro-6H-pyrido[2,3-d]pyrimidin-7-one]	< 10	< 10	< 10	< 10	–	–
COc1ccc(C2Cc3cnc(Nc4ccccc4)nc3N(CC3CC3)C2=O)cc1 (stereo not drawn) [Example 14b, 8-Cyclopropylmethyl-6-(4-methoxy-phenyl)-2-phenylamino-5,8-dihydro-6H-pyrido[2,3-d]pyrimidine-7-one]	< 10	< 10	< 10	< 10	–	–
COc1ccc(OC)c(C2Cc3cnc(Nc4ccccc4)nc3N(c3ccccc3)C2=O)c1 (stereo not drawn) [Example 6c, 6-(2,5-Dimethoxy-phenyl)-8-phenyl-2-phenylamino-5,8-dihydro-6H-pyrido[2,3-d]pyrimidin-7-one]	< 10	< 10	< 10	< 10	–	–
Cc1ccccc1C1Cc2cnc(Nc3ccccc3)nc2N(c2ccccc2)C1=O (stereo not drawn) [Example 4c, 8-Phenyl-2-phenylamino-6-O-tolyl-5,8-dihydro-6H-pyrido[2,3-d]pyrimidin-7-one]	< 10	< 10	< 10	< 10	–	–
COc1ccc(C2Cc3cnc(Nc4ccccc4)nc3N(CC(C)C)C2=O)cc1 (stereo not drawn) [Example 13b, 8-Isobutyl-6-(4-methoxy-phenyl)-2-phenylamino-5,8-dihydro-6H-pyrido[2,3-d]pyrimidine-7-one]	< 10	< 10	< 10	< 10	–	–
O=C1C(c2ccccc2)Cc2cnc(Nc3ccccc3)nc2N1c1ccccc1 (stereo not drawn) [Example 5c, 6,8-Diphenyl-2-phenylamino-5,8-dihydro-6H-pyrido[2,3-d]pyrimidin-7-one]	< 10	< 10	< 10	< 10	–	–
COc1ccc(C2Cc3cnc(Nc4ccc(OC)nc4)nc3N(c3ccccc3)C2=O)cc1 (stereo not drawn) [Example 12d, 6-(4-Methoxy-phenyl)-2-(6-methoxy-pyridin-3-ylamino)-8-phenyl-5,8-dihydro-6H-pyrido[2,3-d]pyrimidine-7-one]	< 10	< 10	< 10	< 10	–	–
O=C1C(c2c(Cl)cccc2Cl)Cc2cnc(Nc3ccccc3)nc2N1c1ccccc1 (stereo not drawn) [Example 2c, 6-(2,6-Dichloro-phenyl)-8-phenyl-2-phenylamino-5,8-dihydro-6H-pyrido[2,3-d]pyrimidin-7-one]	< 10	< 10	< 10	< 10	< 10	< 10
COc1ccccc1C1Cc2cnc(Nc3ccccc3)nc2N(c2ccccc2)C1=O (stereo not drawn) [Example 7c, 6-(2-Methoxy-phenyl)-8-phenyl-2-phenylamino-5,8-dihydro-6H-pyrido[2,3-d]pyrimidin-7-one]	< 10	< 10	< 10	< 10	–	–
O=C1C(c2ccncc2)Cc2cnc(Nc3ccccc3)nc2N1c1ccccc1 (stereo not drawn) [Example 9c, 8-Phenyl-2-phenylamino-6-pyridin-4-yl-5,8-dihydro-6H-pyrido[2,3-d]pyrimidin-7-one]	> 10	< 10	> 10	< 10	–	–
